Experimental data reported in ChEMBL document CHEMBL4351028, “Benzoyl indoles with metabolic stability as reversal agents for ABCG2-mediated multidrug resistance” (Eur J Med Chem, 2019).
Calls of active or inactive are those of the source. The rule behind the calls is not given here.

What was measured:
[1] = Metabolic stability in human liver microsomes assessed as compound remaining at 100 uM incubated for 1 hr by HPLC analysis; assay type: ADME, Microsome; details: read-out: Stability
HEK293 [2] = test: Reversal of ABCG2 482-G2 mutant (unknown origin) expressed in HEK293 cells-mediated multidrug resistance assessed as potentiation of mitoxantrone-induced cytotoxicity at 5 uM pretreated for 2 hrs followed by mitoxantrone addition and measured after 44 hrs by MTT assay; assay type: cell-based; details: Homo sapiens
HEK293 [3] = test: Reversal of ABCG2 482-T7 mutant (unknown origin) expressed in HEK293 cells-mediated multidrug resistance assessed as potentiation of mitoxantrone-induced cytotoxicity at 5 uM pretreated for 2 hrs followed by mitoxantrone addition and measured after 44 hrs by MTT assay; assay type: cell-based; details: Homo sapiens
[4] = molecular target: T1, Broad substrate specificity ATP-binding cassette transporter ABCG2 (Homo sapiens, UniProt Q9UNQ0); test: (§1) Reversal of ABCG2-mediated multidrug resistance in human NCI-H460/MX20 cells assessed as potentiation of mitoxantrone-induced cytotoxicity by measuring inhibition of cell proliferation at 1 uM pretreated for 2 hrs followed by mitoxantrone addition and measured after 44 hrs by MTT assay (reference value: 24 +/- 3%); assay type: cell-based
T1 sequence (Q9UNQ0 whole entry): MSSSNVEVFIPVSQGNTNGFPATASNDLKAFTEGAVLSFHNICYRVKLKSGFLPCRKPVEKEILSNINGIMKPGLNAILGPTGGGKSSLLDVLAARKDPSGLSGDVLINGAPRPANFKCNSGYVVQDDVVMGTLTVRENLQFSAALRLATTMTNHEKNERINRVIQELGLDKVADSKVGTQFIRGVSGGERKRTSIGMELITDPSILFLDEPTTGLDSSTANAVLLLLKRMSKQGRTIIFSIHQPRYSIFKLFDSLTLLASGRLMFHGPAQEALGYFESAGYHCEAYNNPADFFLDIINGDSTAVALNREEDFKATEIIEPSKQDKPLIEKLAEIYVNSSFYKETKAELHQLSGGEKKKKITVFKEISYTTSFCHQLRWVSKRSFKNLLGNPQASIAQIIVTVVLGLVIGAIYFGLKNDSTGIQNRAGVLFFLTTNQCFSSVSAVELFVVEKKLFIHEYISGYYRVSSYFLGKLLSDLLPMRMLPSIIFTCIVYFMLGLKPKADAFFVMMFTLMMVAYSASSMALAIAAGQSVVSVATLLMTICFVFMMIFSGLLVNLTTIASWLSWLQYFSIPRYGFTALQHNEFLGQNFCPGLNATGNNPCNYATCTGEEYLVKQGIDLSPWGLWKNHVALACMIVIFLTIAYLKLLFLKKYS

[5] = Cytotoxicity against human NCI-H460/MX20 cells assessed as inhibition of cell viability incubated for 2 hrs by MTT assay; assay type: cell-based; details: NCI-H460/MX20, 2 h
[6] = Cytotoxicity against human NCI-H460/MX20 cells assessed as concentration that causes inhibition of cell viability by <=20% incubated for 24 hrs by MTT assay; assay type: cell-based
NCI-H460 [7] = test: Cytotoxicity against human NCI-H460 cells assessed as inhibition of cell viability incubated for 2 hrs by MTT assay; assay type: cell-based; details: NCI-H460, 2 h, read-out: IC50
NCI-H460 [8] = test: Cytotoxicity against human NCI-H460 cells assessed as concentration that causes inhibition of cell viability by <=20% incubated for 24 hrs by MTT assay; assay type: cell-based; details: nci-h460, 24 h
[9] = Cytotoxicity against human NCI-H460 cells assessed as inhibition of cell viability at 5 to 25 uM incubated for 2 hrs by MTT assay relative to control; assay type: cell-based; details: read-out: INH
[10] = molecular target: T1, Broad substrate specificity ATP-binding cassette transporter ABCG2; test: Reversal of ABCG2-mediated multidrug resistance in human NCI-H460/MX20 cells assessed as potentiation of cisplatin-induced cytotoxicity at 25 uM pretreated for 2 hrs followed by cisplatin addition and measured after 44 hrs by MTT assay; assay type: cell-based
[11] = Cytotoxicity against HEK293 cells harbouring ABCG2-482-T7 mutant assessed as inhibition of cell viability at 5 to 25 uM incubated for 2 hrs by MTT assay relative to control; assay type: ADME, cell-based; details: human, read-out: INH
[12] = molecular target: T1, Broad substrate specificity ATP-binding cassette transporter ABCG2; test: Reversal of ABCG2 (unknown origin) expressed in HEK293 cells-mediated multidrug resistance assessed as potentiation of mitoxantrone-induced cytotoxicity at 10 to 25 uM pretreated for 2 hrs followed by mitoxantrone addition and measured after 44 hrs by MTT assay; assay type: cell-based; details: hek293, 44 h
Homo sapiens [13] = species: Homo sapiens; test: Effect on ABCG2 internalization in human NCI-H460/MX20 cells at 25 uM incubated for 72 hrs by immunofluorescence analysis; assay type: functional, cell-based
[14] = molecular target: T1, Broad substrate specificity ATP-binding cassette transporter ABCG2; test: Inhibition of ABCG2-mediated mitoxantrone efflux in human NCI-H460/MX20 cells assessed as increase in accumulation of [3H]MX at 25 uM incubated for 2 hrs followed by [3H]MX addition further incubated for 2 hrs by liquid scintillation counter relative to control; assay type: cell-based
Homo sapiens [15] = species: Homo sapiens; test: Effect on ABCG2 expression in human NCI-H460/MX20 cells at 25 uM incubated up to 72 hrs by Western blot analysis; assay type: functional, cell-based
[16] = molecular target: T1, Broad substrate specificity ATP-binding cassette transporter ABCG2; test: as §1, with “25” for “1”; assay type: cell-based
HEK293 [17] = test: Reversal of ABCG2 482-T7 mutant (unknown origin) expressed in HEK293 cells-mediated multidrug resistance assessed as potentiation of mitoxantrone-induced cytotoxicity at 10 to 25 uM pretreated for 2 hrs followed by mitoxantrone challenge and measured after 44 hrs by MTT assay; assay type: cell-based; details: Homo sapiens
[18] = Cytotoxicity against human NCI-H460/MX20 cells assessed as inhibition of cell viability at 5 to 25 uM incubated for 2 hrs by MTT assay relative to control; assay type: cell-based; details: read-out: INH
[19] = Cytotoxicity against human S1 cells assessed as inhibition of cell viability at 5 to 25 uM incubated for 2 hrs by MTT assay relative to control; assay type: cell-based; details: read-out: INH
[20] = Cytotoxicity against HEK293 cells expressing wild type ABCG2-482-R2 assessed as inhibition of cell viability at 5 to 25 uM incubated for 2 hrs by MTT assay relative to control; assay type: ADME, cell-based; details: human, read-out: INH
[21] = Cytotoxicity against human S1-M1-80 cells assessed as inhibition of cell viability at 5 to 25 uM incubated for 2 hrs by MTT assay relative to control; assay type: cell-based; details: read-out: INH
[22] = molecular target: T1, Broad substrate specificity ATP-binding cassette transporter ABCG2; test: Reversal of ABCG2-mediated multidrug resistance in human S1-M1-80 cells assessed as potentiation of mitoxantrone-induced cytotoxicity at 25 uM pretreated with compound for 2 hrs followed by mitoxantrone challenge for 44 hrs by MTT assay; assay type: cell-based
[23] = molecular target: T1, Broad substrate specificity ATP-binding cassette transporter ABCG2; test: Competitive substrate activity at ABCG2 (unknown origin) expressed in High Five insect cell vesicle membrane assessed as stimulation of ATPase activity by PREDEASY ATPase assay
HEK293 [24] = test: Reversal of ABCG2 482-G2 mutant (unknown oirigin) expressed in HEK293 cells-mediated multidrug resistance assessed as potentiation of mitoxantrone-induced cytotoxicity at 10 to 25 uM pretreated for 2 hrs followed by mitoxantrone addition and measured after 44 hrs by MTT assay; assay type: cell-based; details: Homo sapiens
[25] = Cytotoxicity against HEK293 cells harbouring ABCG2-482-G2 mutant assessed as inhibition of cell viability at 5 to 25 uM incubated for 2 hrs by MTT assay relative to control; assay type: ADME, cell-based; details: human, read-out: INH
[26] = molecular target: T1, Broad substrate specificity ATP-binding cassette transporter ABCG2; test: Competitive substrate activity at ABCG2 (unknown origin) expressed in High Five insect cell vesicle membrane assessed as stimulation of ATPase activity up to 40 uM by PREDEASY ATPase assay relative to control
ABCG2 = molecular target: T2, ABCG2 (Homo sapiens, UniProt Q9UNQ0); test: Competitive substrate activity at ABCG2 (unknown origin) expressed in High Five insect cell vesicle membrane assessed as stimulation of ATPase activity at 0.21 uM by PREDEASY ATPase assay relative to control; details: High Five insect cell vesicle membranes expressing ABCG2
T2 sequence (Q9UNQ0 whole entry): T1 sequence (Q9UNQ0 whole entry)

[27] = molecular target: T1, Broad substrate specificity ATP-binding cassette transporter ABCG2; test: Reversal of ABCG2-mediated multidrug resistance in human NCI-H460/MX20 cells assessed as potentiation of mitoxantrone-induced cytotoxicity by measuring inhibition of cell proliferation pretreated for 2 hrs followed by mitoxantrone addition and measured after 44 hrs by MTT assay; assay type: cell-based
[28] = molecular target: T1, Broad substrate specificity ATP-binding cassette transporter ABCG2; test: Reversal of ABCG2-mediated multidrug resistance in human NCI-H460/MX20 cells assessed as potentiation of mitoxantrone-induced cytotoxicity at 10 to 25 uM pretreated with compound for 2 hrs followed by mitoxantrone challenge for 44 hrs by MTT assay; assay type: cell-based
[29] = molecular target: T1, Broad substrate specificity ATP-binding cassette transporter ABCG2; test: Inhibition of ABCG2-mediated mitoxantrone efflux in human NCI-H460/MX20 cells assessed as increase in accumulation of [3H]MX at 10 uM incubated for 2 hrs followed by [3H]MX addition and measured after 2 hrs by liquid scintillation counter; assay type: cell-based
[30] = molecular target: T1, Broad substrate specificity ATP-binding cassette transporter ABCG2; test: Reversal of ABCG2-mediated multidrug resistance in human S1-M1-80 cells assessed as potentiation of doxorubicin-induced cytotoxicity at 25 uM pretreated with compound for 2 hrs followed by doxorubicin challenge for 44 hrs by MTT assay; assay type: cell-based
[31] = Cytotoxicity against HEK293 cells transfected with pcDNA3.1 assessed as inhibition of cell viability at 5 to 25 uM incubated for 2 by MTT assay relative to control; assay type: cell-based; details: human, read-out: INH

For `COc1ccc2c3c([nH]c2c1)[C@H](CC(C)C)N1C(=O)[C@H](CCC(=O)OC(C)(C)C)NC(=O)[C@@H]1C3`, the remaining at 1 h, 100 µM [1] was 23%, the Activity (HEK293 [2]) was “Active” and the Activity (HEK293 [3]) was “Active”.
With `COc1ccc2[nH]cc(C(=O)c3c(OC)cccc3OC)c2c1` the “inhibition (INH)” value [4] was “Active”, the IC50 [5] was > 100 µM and the Activity [6] was 1 µM. For the same molecule, the IC50 (NCI-H460 [7]) was > 100 µM and the Activity (NCI-H460 [8]) was 1 µM.
In the case of `COc1ccc(C(=O)c2ccc3[nH]cc(C(=O)c4ccc(OC)cc4)c3c2OC)cc1`, the cytotoxicity at 2 h, up to 25 µM [9] is reported as < 20%, the Activity [10] is reported as “Not Active” and the cytotoxicity at 2 h, up to 25 µM [11] is reported as < 20%. For the same molecule, the Activity [12] was “Active”, the Activity (Homo sapiens [13]) was “inactive” and the “fold change (FC)” value [14] was 3. The Activity (Homo sapiens [15]) was “inactive”, the inhibition at 25 µM [16] was > 87% and the Activity (HEK293 [17]) was “Active”. For the same molecule, the cytotoxicity at 2 h, up to 25 µM [18] was < 20%, the IC50 [5] was > 100 µM and the remaining at 1 h, 100 µM [1] was 56%. For the same molecule, the cytotoxicity at 2 h, up to 25 µM [19] was < 20%, the cytotoxicity at 2 h, up to 25 µM [20] was < 20% and the cytotoxicity at 2 h, up to 25 µM [21] was < 20%. For the same molecule, the Activity [6] was 25 µM, the Activity [22] was “Active” and the Activity [23] was “Dose-dependent effect”. The Activity (HEK293 [24]) was “Active”, the cytotoxicity at 2 h, up to 25 µM [25] was < 20% and the “fold change (FC)” value [26] was 3.01. For the same molecule, the Emax at 0.21 µM (ABCG2) was 50%, the IC50 (NCI-H460 [7]) was > 100 µM and the “inhibition (INH)” value [27] was “Dose-dependent effect”. For the same molecule, the Activity [28] was “Active”, the Activity [29] was “Active” and the Activity [30] was “Active”. For the same molecule, the Activity (NCI-H460 [8]) was 25 µM and the cytotoxicity at up to 25 µM [31] was < 20%.
With `COc1ccc2[nH]cc(C(=O)c3cc(OC)c(OC)c(OC)c3)c2c1` the “inhibition (INH)” value [4] was “Active”, the IC50 [5] was 5.82 µM and the Activity [6] was 1 µM. The IC50 (NCI-H460 [7]) was 4.9 µM and the Activity (NCI-H460 [8]) was 1 µM.
